# Data reported in patent publication US20080071116A1, “Modulators of Lysophosphatidic Acid (Lpa) Signaling and the Use Thereof” (THE BOARD OF REGENTS OF THE UNIVERSITY OF TEXAS SYSTEM, priority 2004, published 2008).
# Assays:
# S1P3 receptor = target: T1, S1P3 receptor (Homo sapiens, UniProt Q99500); experiment: GTP[γ-35S] binding assay, HEK293 T membranes, S1P3 control; assay type: biochemical; settings: cells transfected with S1P3, negative control, FIG. 59D
# T1 construct: expressed in transfected cells; host or cells: HEK293 T cells (crude microsomal membranes)
# Description: (§1) OMPT also enhances GTP [γ-^35S] binding in the cell membrane of HEK293 T cells expressing LPA3. The procedures for these GTP [γ-^35S] binding assays involve co-transfection of HEK293 T cells with expression vectors encoding one of the receptors for LPA (LPA1, LPA2, or LPA3) or S1P (S1P3/Edg3) by calcium phosphate precipitation, together with plasmids encoding three G proteins (rat Gi2α, cow β1, and cow γ2). After about 48 hours, cells were harvested and crude microsomal membranes were prepared. Membranes containing about 5 μg of protein were incubated in 0.1 ml of GTP-binding buffer (50 mM Hepes, 100 mM NaCl, 10 mM MgCl2, pH7.5) having 5 μg of saponin, 0.1% fatty acid-free BSA, 10 μM GDP, 0.1 nM GTP[γ-^35S] (1200 Ci/mmole) together with indicated concentrations of LPA or OMPT for about 30 min at 30° C. Membranes were collected using a 96-well Brandel Cell Harvester (Gaithersburg, Md.), and bound radionuclide was determined using a Packard TopCount liquid scintillation counter.
# PKA = PKA activation in PC-3 cells; assay type: cell-based, human
# OVCAR3 cells = experiment: calcium mobilization assay in ovarian cancer OVCAR3 cells; assay type: cell-based, human; settings: Homo sapiens, OVCAR-3; OVCAR3 cells; 95% confidence about 7.0 to about 11.5 nM
# Description: The procedures for these calcium mobilization assays are as followed: OVCAR3 cells and PC-3 cells were cultured in RPMI 1640 medium with 10% FBS (fetal bovine serum). HT29 cells were cultured in DMEM (high glucose) medium with 10% FBS. All cells were cultured at about 37° C. in a humidified atmosphere with 5% CO2. After starvation in serum-free medium for about 12-24 hours, cells were harvested and loaded with about 1 μM of Indo-1 AM in serum-free medium for about 45 min at 37° C. Cells were washed in PBS and resuspended at 2×10^6 cells/ml in a [Ca^2+]i assay buffer (Sodium chloride, NaCl, about 140 mM, potassium chloride, KCl, about 2 mM, magnesium chloride, MgCl2, about 1 mM, calcium chloride, CaCl2, about 2 mM, in about 25 mM HEPES buffer at pH 7.4 with about 10 mM of glucose). Cytoplasmic [Ca^2+]i was determined at an excitation wavelength of about 331 nm and an emission wavelength of 410 nm using a fluorescence spectrophotometer (Hitachi, F-4000). Approximately 3×10^6 cells were used for [Ca^2+]l determination in a stirred quartz cuvette kept at about 37° C. OMPT or 18:1 LPA was dissolved in about 0.1% BSA/PBS solution and applied immediately to the cells. To test other LPA derivatives of the invention, cells were exposed to the derivatives for about 3 minutes or for a period of various times in time course related experiments before a LPA agonist, such as 18:1 LPA, OMPT, or other LPAs was applied into the cuvette.
# The concentration of calcium mobilization giving the half-maximal response (EC50) was obtained from the concentration-response curve fitted to a sigmoidal logistic equation, with the maximal calcium response set to 100% using the GraphPad Prism. Maximal response value is expressed as mean +/−s.e.m. EC50 value is expressed with 95% confidence.
# LPA3 receptor [1] = target: T2, LPA3 receptor (Homo sapiens, UniProt Q9UBY5); experiment: calcium mobilization in Sf9 insect cells expressing LPA3; assay type: cell-based; set-up: expressed in transfected cells; host or cells: Sf9 insect cells
# T2 sequence (Q9UBY5 1-353): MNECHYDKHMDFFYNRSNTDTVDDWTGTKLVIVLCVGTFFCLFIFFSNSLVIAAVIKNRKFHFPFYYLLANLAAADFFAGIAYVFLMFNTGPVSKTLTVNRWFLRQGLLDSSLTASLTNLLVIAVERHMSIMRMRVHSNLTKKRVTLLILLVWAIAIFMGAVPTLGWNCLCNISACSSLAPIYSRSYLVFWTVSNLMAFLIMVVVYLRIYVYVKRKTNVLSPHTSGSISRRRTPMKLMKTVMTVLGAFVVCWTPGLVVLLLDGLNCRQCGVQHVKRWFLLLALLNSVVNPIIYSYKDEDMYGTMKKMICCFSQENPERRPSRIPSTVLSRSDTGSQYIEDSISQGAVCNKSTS
# LPA3 receptor [2] = target: T3, LPA3 receptor (Homo sapiens, UniProt Q9UBY5); experiment: GTP[γ-35S] binding assay, HEK293 T membranes, LPA3; assay type: biochemical; settings: HEK293 transfected with LPA3, FIG. 59C
# T3 construct: expressed in transfected cells; host or cells: HEK293 T cells (crude microsomal membranes)
# Description: as §1
# T3 sequence (P04897 2-355 partner limits assumed, one chain of several): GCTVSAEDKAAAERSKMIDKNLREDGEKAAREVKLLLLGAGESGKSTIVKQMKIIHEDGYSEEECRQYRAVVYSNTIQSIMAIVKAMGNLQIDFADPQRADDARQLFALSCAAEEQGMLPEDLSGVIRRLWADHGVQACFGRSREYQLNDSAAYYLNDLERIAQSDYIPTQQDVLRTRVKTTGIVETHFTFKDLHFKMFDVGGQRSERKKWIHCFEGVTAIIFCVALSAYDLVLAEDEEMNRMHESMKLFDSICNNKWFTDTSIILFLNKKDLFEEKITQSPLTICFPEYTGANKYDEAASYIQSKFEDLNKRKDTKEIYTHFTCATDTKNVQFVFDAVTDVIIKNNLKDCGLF
# T3 sequence (P62871 2-340 partner limits assumed, one chain of several): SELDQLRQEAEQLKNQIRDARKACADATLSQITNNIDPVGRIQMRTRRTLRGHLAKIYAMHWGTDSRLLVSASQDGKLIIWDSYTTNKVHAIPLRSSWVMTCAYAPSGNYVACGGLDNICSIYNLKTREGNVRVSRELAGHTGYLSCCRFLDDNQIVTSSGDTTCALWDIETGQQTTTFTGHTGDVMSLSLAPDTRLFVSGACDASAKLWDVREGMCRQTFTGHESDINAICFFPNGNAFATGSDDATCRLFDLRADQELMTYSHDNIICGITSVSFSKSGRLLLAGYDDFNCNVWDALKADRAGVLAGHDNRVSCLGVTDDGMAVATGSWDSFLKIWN
# T3 sequence (P63212 2-68 partner limits assumed, one chain of several): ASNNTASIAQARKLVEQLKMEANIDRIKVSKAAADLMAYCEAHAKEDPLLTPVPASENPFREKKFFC
# AKT = AKT phosphorylation immunoblot in prostate cancer cells; assay type: cell-based, human; settings: PC-3 and DU145 cells
# Description: The cells were then lysed in SDA sample buffer or ice-cold X-100 lysis buffer (1% Triton X-100, 50 mM HEPES [pH7.4], 150 mM NaCl, 1.5 mM MgCl2, 1 mM EGTA, 10% glycerol, 100 mM NaF, 10 mM Na pyrophosphate, and 1 mM aprotinin). Total cellular protein was resolved by SDS/PAGE, transferred to immobilon [poly (vinylidene difluoride)], and immunoblotted with antibodies following the protocols provided by manufactures. Immunocomplexes were visualized with an enhanced chemiluminescence detection kit (Amersham Pharmacia) using horseradish peroxidase-conjugated secondary antibodies (Bio-Rad).
# [3] = test system: chimera receptor, LPA1/LPA2; experiment: calcium mobilization in Sf9 cells expressing LPA1/LPA2 chimera receptor; assay type: cell-based; settings: FIG. 58C
# LPA1 receptor = LPA1 receptor (Homo sapiens, UniProt Q92633); experiment: GTP[γ-35S] binding assay, HEK293 T membranes, LPA1; assay type: biochemical; set-up: expressed in transfected cells; host or cells: HEK293 T cells (crude microsomal membranes); settings: HEK293 transfected with LPA1, FIG. 59A
# Description: as §1
# LPA2 receptor = LPA2 receptor (Homo sapiens, UniProt Q9HBW0); experiment: HA-Erk1 phosphorylation in HEK 293 T cells transfected with LPA2; assay type: cell-based; set-up: expressed in transfected cells; settings: LPA2 transfected HEK 293 T; 0.01, 0.1, or 1 μM
# Text: We have also tested kinase activation by the LPA3 receptor subtype using OMPT as a tool. We determined whether activation of the LPA3 receptor by OMPT can be linked to ERK activation (related to MAP kinase signaling pathway) in mammalian cells, HEK 293 T cells, by co-transfecting hemagglutinin (HA)-tagged Erk1 (HA-Erk1) with either a control vector or an expression vector having LPA1, LPA2, or LPA3. […] There is no phosphorylation of HA-Erk1 at lower concentration of LPA or OMPT in the absence of LPA receptors. […] Thus, the data confirmed that OMPT, an LPA derivative, is a selective agonist for LPA3 receptor subtype, capable of inducing MAPK activation.
# LPA1 receptor, sequence (Q92633 whole entry): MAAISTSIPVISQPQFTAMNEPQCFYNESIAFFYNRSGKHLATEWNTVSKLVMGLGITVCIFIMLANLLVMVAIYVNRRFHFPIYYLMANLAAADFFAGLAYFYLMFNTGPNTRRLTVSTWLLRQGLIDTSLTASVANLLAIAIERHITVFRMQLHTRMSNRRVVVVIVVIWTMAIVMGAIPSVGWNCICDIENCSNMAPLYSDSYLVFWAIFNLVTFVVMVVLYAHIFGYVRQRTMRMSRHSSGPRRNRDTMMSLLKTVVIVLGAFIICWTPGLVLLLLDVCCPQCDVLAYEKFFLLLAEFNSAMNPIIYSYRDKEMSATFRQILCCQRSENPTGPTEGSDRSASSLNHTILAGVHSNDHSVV
# LPA2 receptor, sequence (Q9HBW0 whole entry): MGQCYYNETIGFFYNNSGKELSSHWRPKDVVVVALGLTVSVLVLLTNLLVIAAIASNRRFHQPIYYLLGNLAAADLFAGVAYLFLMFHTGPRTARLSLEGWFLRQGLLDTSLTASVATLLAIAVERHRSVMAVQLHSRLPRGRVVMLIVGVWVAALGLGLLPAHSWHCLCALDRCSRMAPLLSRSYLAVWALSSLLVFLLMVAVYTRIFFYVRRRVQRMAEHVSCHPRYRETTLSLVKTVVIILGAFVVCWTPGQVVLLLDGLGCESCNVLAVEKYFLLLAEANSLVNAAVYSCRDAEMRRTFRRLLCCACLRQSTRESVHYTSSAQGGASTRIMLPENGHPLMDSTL
# T1 sequence (Q99500 whole entry): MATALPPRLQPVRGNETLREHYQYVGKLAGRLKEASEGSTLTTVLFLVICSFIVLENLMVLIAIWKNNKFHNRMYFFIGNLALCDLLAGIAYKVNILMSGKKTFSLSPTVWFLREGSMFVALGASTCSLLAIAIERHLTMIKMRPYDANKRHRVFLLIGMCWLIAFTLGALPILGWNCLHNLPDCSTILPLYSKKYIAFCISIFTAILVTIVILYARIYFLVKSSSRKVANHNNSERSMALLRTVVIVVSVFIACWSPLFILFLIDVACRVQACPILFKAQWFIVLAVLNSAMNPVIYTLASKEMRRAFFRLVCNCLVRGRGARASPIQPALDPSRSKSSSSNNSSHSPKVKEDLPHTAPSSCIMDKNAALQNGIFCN
compound,measurement,setting,value
"CCCCCCCC/C=C\CCCCCCCC(=O)OCC(COP(O)(O)=S)OC (racemic) [OMPT, 1-oleoyl-sn2-O-methyl-rac-glycero-3-phosphothionate]",activation in GTP[γ-35S] binding assay,S1P3 receptor,does not activate
same,activation of PKA,PKA,does not
same,EC50,OVCAR3 cells,~0.009 µM
same,calcium mobilization,LPA3 receptor [1],efficiently activates calcium mobilization
same,EC50,LPA3 receptor [1]; read-out: EC50 of increase in intracellular calcium concentration,0.069 µM
same,activation in GTP[γ-35S] binding assay,LPA3 receptor [2],activates
same,activation of AKT,AKT,efficiently activates
same,calcium mobilization,[3],did not induce calcium mobilization
same,activation in GTP[γ-35S] binding assay,LPA1 receptor,does not activate
same,HA-Erk1 phosphorylation,LPA2 receptor,did not increase HA-Erk1 phosphorylation
